Test results: ChEMBL document CHEMBL1131540 (Bioorg Med Chem Lett, 1998)
pIC50, pKi: −log10 of the molar value.

Experiments:
Mu-type opioid receptor [1] = biological target: T1, Mu-type opioid receptor (Cavia porcellus, UniProt P97266); experiment: Inhibitory concentration required against biological activity of mu opioid receptor from guinea pig ileum (GPI); assay type: tissue-based
[2] = biological target: Opioid receptors; mu & delta (Homo sapiens) (UniProt P41143+P35372); experiment: Selectivity ratio of binding affinity towards delta opioid receptor to that of mu opioid receptor; assay type: protein assay
Sequence of Opioid receptors; mu & delta (Homo sapiens) (P35372 whole entry, looked up): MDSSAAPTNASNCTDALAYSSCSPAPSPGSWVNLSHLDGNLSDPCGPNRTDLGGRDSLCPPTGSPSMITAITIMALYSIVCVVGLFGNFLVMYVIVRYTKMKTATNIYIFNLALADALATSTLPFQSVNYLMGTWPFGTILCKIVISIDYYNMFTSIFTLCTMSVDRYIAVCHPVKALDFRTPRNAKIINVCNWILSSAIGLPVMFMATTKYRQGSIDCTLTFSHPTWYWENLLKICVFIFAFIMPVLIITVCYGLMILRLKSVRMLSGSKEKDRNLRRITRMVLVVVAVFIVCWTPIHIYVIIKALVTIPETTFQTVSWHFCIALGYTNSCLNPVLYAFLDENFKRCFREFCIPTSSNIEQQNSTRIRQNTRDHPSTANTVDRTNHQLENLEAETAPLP
Sequence of Opioid receptors; mu & delta (Homo sapiens) (P41143 whole entry, looked up): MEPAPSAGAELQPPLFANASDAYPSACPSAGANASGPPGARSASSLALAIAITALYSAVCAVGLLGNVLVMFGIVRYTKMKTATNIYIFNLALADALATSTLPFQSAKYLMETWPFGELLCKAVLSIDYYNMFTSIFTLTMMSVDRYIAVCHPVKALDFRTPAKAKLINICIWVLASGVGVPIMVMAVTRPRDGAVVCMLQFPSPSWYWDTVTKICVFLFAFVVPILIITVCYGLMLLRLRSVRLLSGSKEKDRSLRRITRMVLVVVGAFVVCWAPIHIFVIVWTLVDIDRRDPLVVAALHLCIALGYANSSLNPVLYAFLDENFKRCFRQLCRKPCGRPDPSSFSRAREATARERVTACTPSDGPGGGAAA

[3] = test system: Opioid receptors; mu & delta; experiment: Ratio of activity of mu opioid receptor from guinea pig ileum (GPI) to that of delta opioid receptor from mouse vas deferens (MVD); assay type: tissue-based
[4] = biological target: Delta-type opioid receptor (Mus musculus, UniProt P32300); experiment: Inhibitory concentration required against biological activity of Opioid receptor delta 1 from mouse vas deferens (MVD)
Sequence of Delta-type opioid receptor (P32300 whole entry): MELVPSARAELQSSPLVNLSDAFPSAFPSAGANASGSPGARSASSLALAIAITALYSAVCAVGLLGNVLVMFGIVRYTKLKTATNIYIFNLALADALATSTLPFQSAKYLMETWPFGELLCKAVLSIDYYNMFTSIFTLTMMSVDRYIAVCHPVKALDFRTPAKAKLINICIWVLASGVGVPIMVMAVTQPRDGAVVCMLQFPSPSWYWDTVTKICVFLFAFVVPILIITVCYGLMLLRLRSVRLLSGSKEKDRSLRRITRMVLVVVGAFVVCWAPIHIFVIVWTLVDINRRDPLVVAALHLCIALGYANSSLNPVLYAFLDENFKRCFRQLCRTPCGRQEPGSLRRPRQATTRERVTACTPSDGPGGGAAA

Mu-type opioid receptor [5] = biological target: T1, Mu-type opioid receptor; experiment: Compound was tested for binding affinity towards mu opioid receptor in guinea pig brain homogenates using [3H]CTOP as radioligand; assay type: tissue-based

T1 sequence (P97266 whole entry): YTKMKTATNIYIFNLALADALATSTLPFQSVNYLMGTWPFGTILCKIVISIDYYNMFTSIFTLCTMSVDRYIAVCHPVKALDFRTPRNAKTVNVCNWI

Compound | pIC50 (Mu-type opioid receptor [1]) | Ratio [2] | Ratio [3] | pIC50 [4] | pKi (Mu-type opioid receptor [5])
C[C@H](c1ccccc1)[C@H](NC(=O)CNC(=O)[C@@H](C)NC(=O)[C@@H](N)Cc1ccc(O)cc1)C(=O)NNC(=O)[C@@H](NC(=O)CNC(=O)[C@@H](C)NC(=O)[C@@H](N)Cc1ccc(O)cc1)[C@H](C)c1ccccc1 (stereo in doubt) | 7.68 | 0.012 | 0.12 | 6.74 | 8.89
C[C@@H](NC(=O)[C@@H](N)Cc1ccc(O)cc1)C(=O)NCC(=O)N[C@@H](Cc1ccc2ccccc2c1)C(=O)NNC(=O)[C@H](Cc1ccc2ccccc2c1)NC(=O)CNC(=O)[C@@H](C)NC(=O)[C@@H](N)Cc1ccc(O)cc1 | 8.66 | 0.23 | 0.24 | 8.03 | 8.77
CC(NC(=O)[C@@H](N)Cc1ccc(O)cc1)C(=O)NCC(=O)N[C@H](C(=O)NNC(=O)[C@@H](NC(=O)CNC(=O)C(C)NC(=O)[C@@H](N)Cc1ccc(O)cc1)[C@@H](C)c1ccccc1)[C@@H](C)c1ccccc1 (single isomer, unassigned) | 7.39 | 0.27 | 0.34 | 6.92 | 8.52
C[C@@H](NC(=O)[C@@H](N)Cc1ccc(O)cc1)C(=O)NCC(=O)N[C@@H](Cc1c(F)c(F)c(F)c(F)c1F)C(=O)NNC(=O)[C@H](Cc1c(F)c(F)c(F)c(F)c1F)NC(=O)CNC(=O)[C@@H](C)NC(=O)[C@@H](N)Cc1ccc(O)cc1 | 8.05 | 0.12 | 0.36 | 7.60 | 9.04
C[C@@H](NC(=O)[C@@H](N)Cc1ccc(O)cc1)C(=O)NCC(=O)N[C@@H](Cc1cccc2ccccc12)C(=O)NNC(=O)[C@H](Cc1cccc2ccccc12)NC(=O)CNC(=O)[C@@H](C)NC(=O)[C@@H](N)Cc1ccc(O)cc1 | 8.77 | 0.12 | 0.1 | 7.77 | 9.10
